Measurements from patent US20090312414A1, “Treatment Of Lower Urinary Tract Dysfunction With CB2-Receptor-Selective Agonists” (priority 2008, published 2009).

Experiments:
CB2 receptor = CB2 receptor (Homo sapiens, UniProt P34972); assay: CB2 binding assay (displacement of radiolabeled agonist); conditions: for IC50: displaces 50% of a radiolabeled agonist
CB1 receptor = CB1 receptor (Homo sapiens, UniProt P21554); assay: biochemical; assay type: binding; conditions: displaces 50% of a radiolabeled agonist
[1] = tested on: urethane-anesthetized rats, acetic acid model; assay: Cystometry in acetic acid bladder hyperactivity model; assay type: in vivo, rat; conditions: for Effect on intercontraction interval (ICI): any tested dose i.v., 20, 40 or 60 min after administration
Protocol: As used herein, the term “acute” means that the animals were dosed only one time, 30 minutes prior to taking the cystometry measurements (i.e., 30 minutes prior to the observation period). The acetic acid-induced model is an irritative model in which increased micturition frequency (decreased micturition interval) and reduced bladder capacity cystometry may be obtained after an intravesical infusion of a dilute solution of acetic acid (McMurray G, Casey J H, Naylor A M. Animal models in urological disease and sexual dysfunction. Br J Pharmacol. 2006; 147 Suppl:S62; Kakizaki H, de Groat W C. Role of spinal nitric oxide in the facilitation of the micturition reflex by bladder irritation. J Urol 1996; 155:355).
Adult female Wistar rats (Janvier, Le Genest Saint Lisles, France), weighing 225-250 g were used. They were delivered to the laboratory at least 5 days before the experiments in order to be acclimatized to laboratory conditions, and were given food (Teklad Global 16% Protein Rodent Diet, Harlan, Gannat, France) and water ad libitum. The animal room was maintained at 21-24° C. with a 12/12 hours alternating light-dark cycle (light phase 07:00-19:00).
Rats were anesthetized by intraperitoneal injection of urethane (1.5 g/kg). After making a midline incision of the abdomen, a polyethylene catheter (0.3 mm ID and 0.7 mm OD) was implanted in the bladder through the dome. An IV catheter (0.58 mm ID and 0.96 mm OD) was also introduced into a jugular vein for test substance administration.
CB2-receptor-selective agonists (compounds of Formulas II, III and IV) were initially dissolved in a vehicle containing a co-solvent mixture of Cremophor EL® (70%, BASF Corporation, Florham Park, N.J.) and ethanol (30%) as a 20-fold concentrated stock solution of the highest dose for testing. For lower doses, individual 20× stock solutions in Cremophor EL® (70%) and ethanol (30%) were also prepared by further dilution of the original 20× stock solution. Just prior to use, the appropriate 20× compound stock solution or vehicle was diluted 1:20 dilution (v:v) with saline to give the appropriate final concentration for dosing, and a single test substance or its vehicle were administered intravenously in a volume of 5 ml/kg and at an infusion rate of 0.2 ml/min.
Cystometric investigations were performed in the urethane anesthetized rats after bladder and jugular vein catheter implantation surgery. The bladder catheter was connected via a T-tube to a MX 860 Novatrans III Gold strain gauge (Medex Medical SARL, Nantes-Carquefou, France) and to a single-syringe infusion pump (70-2208 Model II Plus, Harvard Apparatus; Les Ulis, France). Physiological saline or 0.2% acetic acid (AA) in saline was infused into the bladder at a constant flow rate (0.05 ml/min), and intravesical pressure was recorded continuously using a MacLab/8e interface (ADInstruments Pty Ltd., Castle Hill, Australia) and the Chart software program. After a control period of 30 minutes (to calculate basal values), a single test substance or its vehicle were administered IV and the intravesical pressure was recorded for 1 hour after compound administration.
Intravesical pressure data were analyzed with Microsoft Excel software. The micturition parameters measured were the following: Basal Pressure (“BP,” mmHg); Threshold Pressure (“ThP,” pressure at which micturition occurs, mmHg); Amplitude of Micturition (“AM,” pressure between ThP and Micturition Pressure, mmHg); Intercontraction Interval (“ICI,” time between two subsequent micturitions, sec); Micturition Frequency (“MF,” number of micturition contractions per 15 minute interval); and Area Under the Curve (“AUC” per 15 minute interval, mmHg·sec) was calculated from the lowest intravesical pressure value during the 15 minute interval. Bladder capacity (“BC”) was measured in ml.
For each rat, basal values for each parameter were calculated as the mean of the last four micturitions before vehicle or test substance administration. […]

CB2 receptor, sequence (P34972 whole entry): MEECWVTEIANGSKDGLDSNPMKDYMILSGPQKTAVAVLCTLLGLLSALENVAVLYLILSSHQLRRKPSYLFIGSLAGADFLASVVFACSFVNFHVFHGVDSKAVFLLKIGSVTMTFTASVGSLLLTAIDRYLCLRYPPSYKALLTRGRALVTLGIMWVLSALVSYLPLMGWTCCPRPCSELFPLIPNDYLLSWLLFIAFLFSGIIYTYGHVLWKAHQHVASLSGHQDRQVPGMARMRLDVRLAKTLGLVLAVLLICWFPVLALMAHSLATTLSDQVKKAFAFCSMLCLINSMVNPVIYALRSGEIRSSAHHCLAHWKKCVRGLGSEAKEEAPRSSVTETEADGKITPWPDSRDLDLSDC
CB1 receptor, sequence (P21554 whole entry): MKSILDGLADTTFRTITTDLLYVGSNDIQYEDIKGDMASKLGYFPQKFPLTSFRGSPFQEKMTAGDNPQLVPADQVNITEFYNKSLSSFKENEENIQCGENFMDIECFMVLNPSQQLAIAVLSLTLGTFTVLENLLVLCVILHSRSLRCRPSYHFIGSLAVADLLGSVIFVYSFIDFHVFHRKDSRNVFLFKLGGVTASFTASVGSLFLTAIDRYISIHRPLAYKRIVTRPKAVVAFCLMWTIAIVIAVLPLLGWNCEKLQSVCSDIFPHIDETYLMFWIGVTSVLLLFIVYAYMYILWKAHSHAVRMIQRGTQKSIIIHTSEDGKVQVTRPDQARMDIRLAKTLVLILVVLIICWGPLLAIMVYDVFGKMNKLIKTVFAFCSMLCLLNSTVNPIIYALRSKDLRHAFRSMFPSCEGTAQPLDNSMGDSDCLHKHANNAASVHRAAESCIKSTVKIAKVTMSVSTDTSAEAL

SMILES	CB2/CB1 affinity ratio (CB2 receptor)	IC50 (CB2 receptor) [nM]	IC50 (CB1 receptor) [nM]	Effect on threshold pressure (ThP) ([1]; 0.5 mg/kg i.v., at 20, 40 and 60 min, p<0.05)	Effect on threshold pressure (ThP) ([1]; 1.5 mg/kg i.v., at 40 min, p<0.05)	Effect on threshold pressure (ThP) ([1]; 5 mg/kg i.v., at 20 and 40 min, p<0.05)	Effect on basal pressure (BP) ([1]; 5 mg/kg i.v., at 20 min, p<0.05)	Effect on intercontraction interval (ICI) ([1]; vs basal values)	Effect on threshold pressure (ThP) ([1]; 3 mg/kg i.v., all time points, vs basal values)	Effect on basal pressure (BP) ([1]; 3 mg/kg i.v., from 0 to 60 min, p<0.05)	Effect on threshold pressure (ThP) ([1]; 15 mg/kg i.v., at 20 min, vs basal values)	Effect on basal pressure (BP) ([1]; any dose (1.5, 5, 15 mg/kg i.v.) or time point, vs basal values)
CCCCC(C)(C)c1cc(O)c([C@H]2C=C(CO)[C@H]3C[C@@H]2C3(C)C)c(O)c1 [Formula II]	21	8.4	181	Significant increases	Significant increases	Significant increases	significantly increased	no effect	–	–	–	–
CCCCCCC(C)(C)c1cc(O)c2c(c1)OC1CCCCCC21 (centres unmarked) [Formula III]	14	6.5	92	–	–	–	–	no effect	significantly increased	significantly increased	–	–
O=S(=O)(NCC1CC1)c1ccc(Nc2ccc(Cl)cc2Cl)cc1C(F)(F)F [Formula IV, N-Cyclopropylmethyl-4-(2,4-dichloro-phenylamino)-2-trifluoromethyl-benzenesulfonamide]	10	30	313	–	–	–	–	no effect	–	–	significant increase	not changed
